Reference: ChEMBL document CHEMBL6083280, “De Novo Discovery of a Noncovalent Cell-Penetrating Bicyclic Peptide Inhibitor Targeting SARS-CoV-2 Main Protease” (J Med Chem, 2024)
The source made the active and inactive calls. No cut-off for these calls is given here. Positions of bridges follow the written chain, without caps; N, C: chain ends. Residues, ends and D or L forms follow the SMILES beside them.

Experiments:
[1] = target: T1, Replicase polyprotein 1ab (Severe acute respiratory syndrome coronavirus 2, UniProt P0DTD1); assay: Binding affinity to N-terminal his-tagged SARS-CoV-2 Main protease expressed in Escherichia coli BL21 (DE3) assessed as dissociation constant by ITC analysis
SARS-CoV-2 [2] = assay: Antiviral activity against SARS-CoV-2 infected in human Caco-2 cells assessed as inhibition of viral infection preincubated for 1 hr followed by viral infection measured after 48 hrs by CQ1 confocal quantitative image cytometer analysis; type: functional, organism-based; settings: for Activity: Severe acute respiratory syndrome coronavirus 2, time 49.0 hrs; for EC50: Severe acute respiratory syndrome coronavirus 2, Caco-2
[3] = target: T1, Replicase polyprotein 1ab; assay: Inhibition of N-terminal his-tagged SARS-CoV-2 Main protease expressed in Escherichia coli BL21 (DE3) using Dabcyl-TSAVLWSGFRICMK-Edans as substrate preincubated for 10 mins by microplate reader analysis
SARS-CoV-2 [4] = assay: Antiviral activity against SARS-CoV-2; type: functional, organism-based; settings: Severe acute respiratory syndrome coronavirus 2
[5] = Drug uptake in human Caco-2 cells at 5 uM measured after 3 hrs by live confocal microscopic analysis; type: ADME, cell-based; settings: caco-2, 3 h
[6] = Volume of distribution at steady state in male CD-1 mouse at 4 mg/kg, iv by LC-MS/MS analysis; type: ADME, organism-based; settings: in vivo, read-out: Vdss
[7] = AUC (0 to infinity) in male CD-1 mouse at 4 mg/kg, iv by LC-MS/MS analysis; type: ADME, organism-based; settings: in vivo
Caco-2 = assay: (§1) Cytotoxicity against human Caco-2 cells assessed as cell viability at 100 uM incubated for 48 hrs by CCK-8 assay; type: toxicity, cell-based; settings: caco-2, 48 h, 100 µM
[8] = Half life in male CD-1 mouse at 4 mg/kg, iv by LC-MS/MS analysis; type: ADME, organism-based; settings: in vivo
[9] = Clearance in male CD-1 mouse at 4 mg/kg, iv by LC-MS/MS analysis; type: ADME, organism-based; settings: in vivo
[10] = Drug uptake in human HeLa cells at 5 uM measured after 3 hrs by live confocal microscopic analysis; type: ADME, cell-based
[11] = Initial plasma concentration in male CD-1 mouse at 4 mg/kg, iv by LC-MS/MS analysis; type: ADME, organism-based
[12] = Metabolic stability in mouse serum assessed as half life by HPLC analysis; type: ADME, cell-free
[13] = target: Cathepsin B (Homo sapiens) (UniProt P07858); assay: Inhibition of cathepsin B (unknown origin)
[14] = target: Ubiquitin carboxyl-terminal hydrolase 14 (Homo sapiens) (UniProt P54578); assay: Inhibition of USP14 (unknown origin)
[15] = as §1; type: toxicity, cell-based; settings: Caco-2 cells
SARS-CoV-2 [16] = assay: Antiviral activity against SARS-CoV-2 Omicron; type: functional, organism-based; settings: Severe acute respiratory syndrome coronavirus 2, Omicron

Ubiquitin carboxyl-terminal hydrolase 14 (Homo sapiens), sequence (P54578 whole entry): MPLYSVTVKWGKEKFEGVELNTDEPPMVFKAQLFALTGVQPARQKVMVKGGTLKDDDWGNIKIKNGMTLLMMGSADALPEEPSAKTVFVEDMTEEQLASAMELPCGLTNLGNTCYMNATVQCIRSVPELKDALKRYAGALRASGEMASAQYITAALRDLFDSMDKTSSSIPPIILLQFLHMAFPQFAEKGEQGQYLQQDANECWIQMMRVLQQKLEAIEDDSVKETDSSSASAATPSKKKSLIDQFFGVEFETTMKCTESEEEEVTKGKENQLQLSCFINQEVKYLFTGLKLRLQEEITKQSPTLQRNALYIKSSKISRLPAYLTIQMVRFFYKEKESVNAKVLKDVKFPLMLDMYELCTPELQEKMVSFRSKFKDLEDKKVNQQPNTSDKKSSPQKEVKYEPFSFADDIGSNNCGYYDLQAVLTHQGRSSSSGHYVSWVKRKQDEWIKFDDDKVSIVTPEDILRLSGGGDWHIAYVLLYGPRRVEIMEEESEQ

## CC(C)C[C@@H]1NC(=O)[C@H](CC(N)=O)NC(=O)[C@H](Cc2ccc(O)cc2)NC(=O)CSC[C@@H](C(=O)NCC(N)=O)NC(=O)[C@H](Cc2ccccc2)NC(=O)[C@H](CO)NC(=O)[C@H](CO)NC(=O)[C@H](CO)NC(=O)[C@H](Cc2c[nH]c3ccccc23)NC(=O)[C@H](CC(=O)O)NC(=O)[C@H](C)NC(=O)[C@H](CCCNC(=N)N)NC(=O)[C@H](CCC(N)=O)NC(=O)[C@H](Cc2ccccc2)NC1=O ({CH2CO}-YNLFQRADWSSSFCG-NH2; thioether N-14)
[1]
  Kd: 6.73 µM
SARS-CoV-2 [2]
  Activity: inactive
[3]
  IC50: 0.3 µM

## CC(C)(C)[C@H](NC(=O)C(F)(F)F)C(=O)N1C[C@H]2[C@@H]([C@H]1C(=O)N[C@H](C#N)C[C@@H]1CCNC1=O)C2(C)C
SARS-CoV-2 [4]
  EC50: 0.0326 µM

## CC(C)[C@@H]1NC(=O)[C@@H](Cc2ccc(O)cc2)NC(=O)CC[C@@H](C(N)=O)NC(=O)[C@@H]2CCCN2C(=O)[C@@H]2CCCN2C(=O)C2CSc3c(F)c(F)c(c(F)c3F)-c3c(F)c(F)c(c(F)c3F)SC[C@H](NC1=O)C(=O)N[C@@H](Cc1ccccc1)C(=O)N[C@@H](Cc1c[nH]cn1)C(=O)N[C@@H]([C@@H](C)O)C(=O)N[C@@H]([C@@H](C)O)C(=O)N[C@@H]([C@@H](C)O)C(=O)N1CCC[C@H]1C(=O)N[C@@H](Cc1ccccc1)C(=O)N2
[5]
  Drug uptake: Active
[6]
  Vd: 0.511 L/kg
[7]
  AUC(0-inf): 2.53 µg·h/mL
Caco-2
  Activity: Non-toxic
[8]
  half-life: 0.499 h
[9]
  clearance: 1.59 L/h/kg
[10]
  Drug uptake: Active
SARS-CoV-2 [2]
  EC50: 8.62 µM
[11]
  C0: 12.1 µg/mL
[3]
  IC50: 4.51 µM
[12]
  half-life: 8 h

## CC[C@H](C)[C@@H]1NC(=O)[C@@H](Cc2ccc(O)cc2)NC(=O)CSC[C@@H](C(=O)NCC(N)=O)NC(=O)[C@@H]2CCCN2C(=O)[C@H](CC(C)C)NC(=O)[C@H](CC(C)C)NC(=O)[C@H]([C@@H](C)O)NC(=O)[C@H](CC(N)=O)NC(=O)CNC(=O)[C@H](CO)NC(=O)[C@H](C)NC(=O)[C@H](Cc2ccccc2)NC(=O)[C@H](CCCNC(=N)N)NC1=O
[1]
  Kd: 4.8 µM
SARS-CoV-2 [2]
  Activity: inactive
[3]
  IC50: 0.25 µM

## CC(C)C[C@@H]1NC(=O)[C@H](Cc2ccc(F)c(F)c2)NC(=O)[C@@H]2CCCN2C(=O)[C@H]([C@@H](C)O)NC(=O)[C@H]([C@@H](C)O)NC(=O)[C@H]([C@@H](C)O)NC(=O)[C@H](Cc2c[nH]cn2)NC(=O)[C@H](Cc2cccc(F)c2)NC(=O)[C@H]([C@@H](C)O)NC(=O)[C@H](C(C)C)NC(=O)[C@@H](Cc2ccc(O)cc2)NC(=O)CSC[C@@H](C(=O)NCC(N)=O)NC(=O)[C@@H]2CCCN2C(=O)[C@@H]2CCCN2C1=O
[13]
  inhibition: Active
[14]
  inhibition: Active
SARS-CoV-2 [2]
  EC50: > 100 µM
[3]
  IC50: 0.32 µM

## CC(C)C[C@H](NC(=O)OCc1ccccc1)C(=O)N[C@@H](CC1CCNC1=O)C(O)S(=O)(=O)O (stereo not given in full)
SARS-CoV-2 [4]
  EC50: 4.5 µM

## CC(C)C[C@@H]1NC(=O)[C@H](CC(N)=O)NC(=O)[C@H](Cc2ccc(O)cc2)NC(=O)CSC[C@@H](C(=O)NCC(N)=O)NC(=O)[C@H](Cc2ccccc2)NC(=O)[C@H](CCCNC(=N)N)NC(=O)[C@H](CCC(N)=O)NC(=O)[C@H](CC(N)=O)NC(=O)[C@H](Cc2c[nH]c3ccccc23)NC(=O)[C@H](CC(=O)O)NC(=O)[C@H]([C@@H](C)O)NC(=O)[C@H](CCCNC(=N)N)NC(=O)[C@H](CCC(N)=O)NC(=O)[C@H](Cc2ccccc2)NC1=O ({CH2CO}-YNLFQRTDWNQRFCG-NH2; thioether N-14)
[1]
  Kd: 2.54 µM
SARS-CoV-2 [2]
  Activity: inactive
[3]
  IC50: 0.25 µM

## CC(C)C[C@@H]1NC(=O)[C@H](Cc2ccccc2)NC(=O)[C@@H](Cc2ccc(O)cc2)NC(=O)CSC[C@@H](C(=O)NCC(N)=O)NC(=O)CNC(=O)[C@H](Cc2ccccc2)NC(=O)[C@H]([C@@H](C)O)NC(=O)[C@H](Cc2ccc(O)cc2)NC(=O)[C@H](CCCNC(=N)N)NC(=O)[C@H](Cc2ccc(O)cc2)NC(=O)[C@@H]2CCCN2C(=O)[C@@H]2CCCN2C1=O
[1]
  Kd: 4 µM
SARS-CoV-2 [2]
  Activity: inactive
[3]
  IC50: 1.45 µM

## Cc1cccc(C)c1OCC(=O)N[C@@H](Cc1ccccc1)[C@@H](O)C[C@H](Cc1ccccc1)NC(=O)[C@H](C(C)C)N1CCCNC1=O [LOPINAVIR]
SARS-CoV-2 [4]
  EC50: 8.75 µM
Caco-2
  Activity: Toxic

## CC(C)C[C@@H]1NC(=O)[C@H](CC(N)=O)NC(=O)[C@H](Cc2ccc(O)cc2)NC(=O)CSC[C@@H](C(=O)NCC(N)=O)NC(=O)[C@H](Cc2ccc(O)cc2)NC(=O)[C@H](CCC(N)=O)NC(=O)[C@H]([C@@H](C)O)NC(=O)[C@H]([C@@H](C)O)NC(=O)[C@H](Cc2c[nH]c3ccccc23)NC(=O)[C@H](CC(=O)O)NC(=O)[C@H]([C@@H](C)O)NC(=O)[C@H](CCCNC(=N)N)NC(=O)[C@H](CCC(N)=O)NC(=O)[C@H](Cc2ccccc2)NC1=O ({CH2CO}-YNLFQRTDWTTQYCG-NH2; thioether N-14)
[15]
  CC50 at 48 h: > 100 µM
[1]
  Kd: 1.12 µM
SARS-CoV-2 [2]
  EC50: 4.89 µM
  Activity: inactive
[3]
  IC50: 0.5 µM
[12]
  half-life: 1.6 h

## CC[C@H](C)[C@@H]1NC(=O)[C@H](Cc2ccc(O)cc2)NC(=O)[C@H](CO)NC(=O)[C@H](CC(C)C)NC(=O)CNC(=O)[C@H](Cc2ccc(O)cc2)NC(=O)[C@H](CO)NC(=O)[C@H](CCC(N)=O)NC(=O)[C@H](Cc2ccccc2)NC(=O)[C@@H](Cc2ccc(O)cc2)NC(=O)CSC[C@@H](C(=O)NCC(N)=O)NC(=O)CNC(=O)[C@@H]2CCCN2C1=O
[1]
  Kd: 2.78 µM
SARS-CoV-2 [2]
  Activity: inactive
[3]
  IC50: 0.46 µM

## Cn1cnc(Cn2c(=O)[nH]/c(=N\c3cc4cn(C)nc4cc3Cl)n(Cc3cc(F)c(F)cc3F)c2=O)n1
SARS-CoV-2 [16]
  EC50: 0.22 µM

## CC(C)C[C@@H]1NC(=O)[C@H](Cc2ccccc2)NC(=O)[C@@H]2CCCN2C(=O)[C@H]([C@@H](C)O)NC(=O)[C@H]([C@@H](C)O)NC(=O)[C@H]([C@@H](C)O)NC(=O)[C@H](Cc2c[nH]cn2)NC(=O)[C@H](Cc2ccccc2)NC(=O)[C@H]([C@@H](C)O)NC(=O)[C@H](C(C)C)NC(=O)[C@@H](Cc2ccc(O)cc2)NC(=O)CSC[C@@H](C(=O)NCC(N)=O)NC(=O)[C@@H]2CCCN2C(=O)[C@@H]2CCCN2C1=O
[13]
  inhibition: Active
[14]
  inhibition: Active
[15]
  CC50 at 48 h: > 100 µM
[1]
  Kd: 2.75 µM
SARS-CoV-2 [2]
  EC50: 10.8 µM
  Activity: inactive
[3]
  IC50: 0.3 µM
[12]
  half-life: 5.4 h

## CC(C)c1nc(CN(C)C(=O)N[C@H](C(=O)N[C@@H](Cc2ccccc2)C[C@H](O)[C@H](Cc2ccccc2)NC(=O)OCc2cncs2)C(C)C)cs1 [RITONAVIR]
SARS-CoV-2 [4]
  EC50: 7.54 µM
